These are literature values, as cited in patent US8765743B2, “Compounds” (Glaxosmithkline Intellectual Property Development Limited, priority 2008, dated 2014).

The subject of data set [1] is Class I PI3-kinases.
In data set [2] the target is CK2 protein kinase (Homo sapiens, UniProt P68400).

Like-named read-outs stand apart in the source and are kept apart here.

Sequence of CK2 protein kinase (P68400 whole entry): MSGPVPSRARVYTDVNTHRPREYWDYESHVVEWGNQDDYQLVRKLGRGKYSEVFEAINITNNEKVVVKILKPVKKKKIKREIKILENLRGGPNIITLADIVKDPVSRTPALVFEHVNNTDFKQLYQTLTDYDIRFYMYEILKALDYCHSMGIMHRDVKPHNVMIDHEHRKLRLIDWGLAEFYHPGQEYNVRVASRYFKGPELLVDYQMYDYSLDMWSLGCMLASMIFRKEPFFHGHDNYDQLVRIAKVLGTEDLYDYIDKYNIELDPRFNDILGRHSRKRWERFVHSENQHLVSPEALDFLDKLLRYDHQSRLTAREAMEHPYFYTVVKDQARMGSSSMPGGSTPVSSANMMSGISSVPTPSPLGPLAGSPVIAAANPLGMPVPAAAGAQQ

What is called IC50 is the concentration that inhibits the measured activity by half. On to `O=c1cc(N2CCOCC2)oc2c(-c3ccccc3)cccc12` [LY294002], for which the IC50 is 15 to 20 µM in data set [1] (Fruman et al. 1998, read-out: IC50 values against each of these PI3-kinases) and 5 to 10 µM in data set [2]. For the compound wortmannin, in data set [1] (read-out: IC50 values against each of the various Class I PI3-kinases), the IC50 is 0.001 to 0.01 µM.
